{"source": "ChEMBL document CHEMBL2177097", "about": "“Discovery of (2S,3R)-N-[2-(pyridin-3-ylmethyl)-1-azabicyclo[2.2.2]oct-3-yl]benzo[b]furan-2-carboxamide (TC-5619), a selective α7 nicotinic acetylcholine receptor agonist, for the treatment of cognitive disorders” (J Med Chem, 2012)", "key": {"[1]": {"test": "Drug degradation in human hepatocytes at 4 hrs", "assay_type": "ADME, cell-based, Hepatocyte", "details": "read-out: Drug degradation"}, "[2]": {"test": "Ratio of drug level in brain to plasma in rat measured 6 hrs post dose", "assay_type": "ADME", "details": "brain and plasma, read-out: BPR"}, "[3]": {"test": "Half life in rat", "assay_type": "ADME, organism-based", "details": "in vivo"}, "[4]": {"test": "Drug degradation in human liver microsomes at 60 mins", "assay_type": "ADME, Microsome", "details": "read-out: Drug degradation"}, "[5]": {"test": "Oral bioavailability in rat", "assay_type": "ADME, organism-based", "details": "in vivo"}}, "data": [{"smiles": "O=C(N[C@@H]1C2CCN(CC2)[C@H]1Cc1cccnc1)c1cc2ccccc2o1", "note": "[BRADANICLINE]", "values": [{"measurement": "metabolised at 4 h", "setting": "[1]", "value": 27, "unit": "%"}, {"measurement": "Kp at 6 h", "setting": "[2]", "value": 0.4}, {"measurement": "half-life", "setting": "[3]", "value": 2, "unit": "h"}, {"measurement": "metabolised at 1 h", "setting": "[4]", "value": "< 25", "unit": "%"}, {"measurement": "bioavailability", "setting": "[5]", "value": 20, "unit": "%"}]}]}
